Data: ChEMBL document CHEMBL1201862, “PubChem BioAssay data set” (2004)
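Where inhibition never reached the appropriate level, the endpoint shown equals the highest concentration tested. Otherwise, values were interpolated linearly from a five-concentration, 48-hour dose response in 96-well plates. GI50 marks 50% less growth.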 Active and inactive are the calls of the source. Cut-off read from the data, not from the text of the source: active = GI50 up to about 1.1 µM and inactive = higher. Where a SMILES comes first, the peptide text is derived from it. The star is where a group is joined. Boc = CC(C)(C)OC(=O)*

Experiments:
Test in all cases: NCI anticancer screen, dose series, 48 h
A498 = system: A498
A549 = system: A549
CAKI-1 = system: CAKI-1
HL-60 = system: HL-60
KM12 = system: KM12
NCI-H226 = system: NCI-H226
NCI-H522 = system: NCI-H522
OVCAR-4 = system: OVCAR-4
RPMI-8226 = system: RPMI-8226
SF-268 = system: SF-268
SF-295 = system: SF-295
SK-MEL-5 = system: SK-MEL-5
SNB-19 = system: SNB-19
SNB-75 = system: SNB-75
UACC-257 = system: UACC-257
CCRF-CEM = system: CCRF-CEM
K562 = system: K562
MOLT-4 = system: MOLT-4
OVCAR-8 = system: OVCAR-8
SN12C = system: SN12C

| Compound | GI50 (A498) | GI50 (A549) | GI50 (CAKI-1) | GI50 (HL-60) | GI50 (KM12) | GI50 (NCI-H226) | GI50 (NCI-H522) | GI50 (OVCAR-4) | GI50 (RPMI-8226) | GI50 (SF-268) | GI50 (SF-295) | GI50 (SK-MEL-5) | GI50 (SNB-19) | GI50 (SNB-75) | GI50 (UACC-257) | GI50 (CCRF-CEM) | GI50 (K562) | GI50 (MOLT-4) | GI50 (OVCAR-8) | GI50 (SN12C) |
| --- | --- | --- | --- | --- | --- | --- | --- | --- | --- | --- | --- | --- | --- | --- | --- | --- | --- | --- | --- | --- |
| CN1NC(c2ccc(Cl)cc2)=C(C#N)C(=O)CC1c1ccccc1 (stereo unspecified) | > 100 µM (inactive) | > 100 µM (inactive) | > 100 µM (inactive) | > 100 µM (inactive) | > 100 µM (inactive) | > 10 µM (inactive) | 79.4 µM (inactive) | > 100 µM (inactive) | > 100 µM (inactive) | > 100 µM (inactive) | > 100 µM (inactive) | 72.9 µM (inactive) | > 100 µM (inactive) | > 100 µM (inactive) | > 100 µM (inactive) | – | – | – | – | – |
| CC(C)(C)OC(=O)NC(Cc1ccccc1)C(=O)N1CCCC1C(N)=O (stereo not drawn) (Boc-Phe-Pro-NH2; configuration not given here) | – | > 100 µM (inactive) | 9.29 µM (inactive) | > 100 µM (inactive) | – | – | > 100 µM (inactive) | > 100 µM (inactive) | > 100 µM (inactive) | > 100 µM (inactive) | > 100 µM (inactive) | > 100 µM (inactive) | > 100 µM (inactive) | – | > 100 µM (inactive) | > 100 µM (inactive) | > 100 µM (inactive) | > 100 µM (inactive) | > 100 µM (inactive) | – |
| CC1C2CC(CC2O)C1(C)C (stereo unspecified) | > 100 µM (inactive) | > 100 µM (inactive) | > 100 µM (inactive) | > 100 µM (inactive) | > 100 µM (inactive) | > 100 µM (inactive) | > 100 µM (inactive) | > 100 µM (inactive) | – | > 100 µM (inactive) | > 100 µM (inactive) | > 100 µM (inactive) | > 100 µM (inactive) | > 100 µM (inactive) | > 100 µM (inactive) | > 100 µM (inactive) | > 100 µM (inactive) | > 100 µM (inactive) | > 100 µM (inactive) | > 100 µM (inactive) |
| CN1CCC(C(O)(c2ccccc2)c2ccc(Br)cc2)CC1 (stereo unspecified) | – | 26.4 µM (inactive) | 14 µM (inactive) | 20.4 µM (inactive) | 18.6 µM (inactive) | 21.8 µM (inactive) | 15.5 µM (inactive) | 22.7 µM (inactive) | 17.3 µM (inactive) | 31.5 µM (inactive) | 17.9 µM (inactive) | 14.8 µM (inactive) | 45.2 µM (inactive) | 16.6 µM (inactive) | 15.4 µM (inactive) | 30.5 µM (inactive) | 16.7 µM (inactive) | 23.1 µM (inactive) | 50.2 µM (inactive) | 16.9 µM (inactive) |
| COc1ccc(-c2cc(O)c3ccc(C)nc3n2)cc1 | 65.6 µM (inactive) | > 100 µM (inactive) | > 100 µM (inactive) | – | > 100 µM (inactive) | > 100 µM (inactive) | > 100 µM (inactive) | > 100 µM (inactive) | 55.7 µM (inactive) | > 100 µM (inactive) | – | – | > 100 µM (inactive) | – | > 100 µM (inactive) | > 100 µM (inactive) | > 100 µM (inactive) | 49.4 µM (inactive) | > 100 µM (inactive) | > 100 µM (inactive) |
| c1ccc2c3c(ccc2c1)-c1[nH]ncc1CCO3 | > 56 µM (inactive) | 37 µM (inactive) | 33.4 µM (inactive) | 14.6 µM (inactive) | 37.2 µM (inactive) | – | 21.8 µM (inactive) | 29.7 µM (inactive) | – | 37.8 µM (inactive) | 28.4 µM (inactive) | > 46.9 µM (inactive) | 47.1 µM (inactive) | 27.5 µM (inactive) | 27.7 µM (inactive) | 32 µM (inactive) | 32.8 µM (inactive) | 20.1 µM (inactive) | 34.4 µM (inactive) | 29.2 µM (inactive) |
| Cc1ccc(N2C(=O)/C(=C3\SC(C(N)=O)=C(N)N3c3ccccc3)SC2=S)cc1 | 4.73 µM (inactive) | > 100 µM (inactive) | – | > 100 µM (inactive) | > 100 µM (inactive) | 37.3 µM (inactive) | 27.7 µM (inactive) | – | 72.4 µM (inactive) | 15.7 µM (inactive) | 24.9 µM (inactive) | > 100 µM (inactive) | 57.5 µM (inactive) | 7.91 µM (inactive) | > 100 µM (inactive) | > 100 µM (inactive) | 78.7 µM (inactive) | > 100 µM (inactive) | 46 µM (inactive) | – |
| CCOC(=O)Oc1cc2ccsc2c2c1c1ccccc1n2C(=O)OCC | 18.4 µM (inactive) | 48.9 µM (inactive) | 58.2 µM (inactive) | – | 49.9 µM (inactive) | 42.2 µM (inactive) | 32.1 µM (inactive) | 40.3 µM (inactive) | 82 µM (inactive) | 64 µM (inactive) | 36.1 µM (inactive) | 63.7 µM (inactive) | – | 27.1 µM (inactive) | 91 µM (inactive) | > 100 µM (inactive) | > 100 µM (inactive) | > 100 µM (inactive) | 87.7 µM (inactive) | 37.8 µM (inactive) |
| O=C(Cc1nc2ccc(C(=O)c3ccccc3)cc2nc1O)C(=O)Nc1nc2ccccc2[nH]1 | – | 50.9 µM (inactive) | 40.2 µM (inactive) | 35.8 µM (inactive) | 24.6 µM (inactive) | – | 30 µM (inactive) | 61.7 µM (inactive) | – | 67 µM (inactive) | 28.4 µM (inactive) | 31 µM (inactive) | > 100 µM (inactive) | 31.7 µM (inactive) | 84.5 µM (inactive) | 38.3 µM (inactive) | – | 42.8 µM (inactive) | 55.1 µM (inactive) | > 100 µM (inactive) |
| O=C(c1ccccc1)c1nc2ccc(Cl)cc2c2c1CCCO2 | – | – | > 100 µM (inactive) | – | > 100 µM (inactive) | > 100 µM (inactive) | > 100 µM (inactive) | > 100 µM (inactive) | > 100 µM (inactive) | > 100 µM (inactive) | 50 µM (inactive) | – | > 100 µM (inactive) | – | – | – | > 100 µM (inactive) | > 100 µM (inactive) | > 100 µM (inactive) | > 100 µM (inactive) |
| CSc1nc2c(c(N3CCOCC3)n1)C(O)n1c(nc3ccccc31)S2 (stereo unspecified) | 97.1 µM (inactive) | 29.6 µM (inactive) | > 100 µM (inactive) | > 100 µM (inactive) | 53.6 µM (inactive) | – | 24.8 µM (inactive) | 41 µM (inactive) | 4.72 µM (inactive) | 26.2 µM (inactive) | 33.5 µM (inactive) | 3.23 µM (inactive) | 17.5 µM (inactive) | 30.5 µM (inactive) | > 100 µM (inactive) | 21.1 µM (inactive) | – | > 100 µM (inactive) | 31.1 µM (inactive) | 77.8 µM (inactive) |
| COc1cc(O)c2c(=O)cc(C3(O)C=CC(=O)C=C3)oc2c1 | 4.05 µM (inactive) | – | < 0.0476 µM (active) | < 0.01 µM (active) | 0.083 µM (active) | 0.394 µM (active) | < 0.0361 µM (active) | 0.393 µM (active) | – | 0.428 µM (active) | 0.631 µM (active) | 0.0321 µM (active) | 6.93 µM (inactive) | 1.22 µM (inactive) | 0.489 µM (active) | < 0.01 µM (active) | < 0.01 µM (active) | 0.0815 µM (active) | 0.0448 µM (active) | 0.135 µM (active) |
| NC(=O)c1c[se]c(C2OC(COP(=O)(O)CP(=O)(O)OCC3OC(n4cnc5c(N)ncnc54)C(O)C3O)C(O)C2O)n1 (stereo unspecified) | > 100 µM (inactive) | 51.3 µM (inactive) | 43.3 µM (inactive) | 28.2 µM (inactive) | 66.5 µM (inactive) | > 100 µM (inactive) | > 100 µM (inactive) | > 100 µM (inactive) | – | > 100 µM (inactive) | 53.3 µM (inactive) | > 100 µM (inactive) | > 100 µM (inactive) | > 100 µM (inactive) | > 100 µM (inactive) | 29.1 µM (inactive) | 15.9 µM (inactive) | 35.3 µM (inactive) | 87.9 µM (inactive) | > 100 µM (inactive) |
| COc1cccc(NC(=O)CSc2nnc(-c3ccc(NC(C)=O)cc3)o2)c1 | – | > 100 µM (inactive) | > 100 µM (inactive) | > 100 µM (inactive) | 49.4 µM (inactive) | > 100 µM (inactive) | > 100 µM (inactive) | > 100 µM (inactive) | > 100 µM (inactive) | > 100 µM (inactive) | > 100 µM (inactive) | > 100 µM (inactive) | – | 30.5 µM (inactive) | > 100 µM (inactive) | 79.1 µM (inactive) | > 100 µM (inactive) | > 100 µM (inactive) | > 100 µM (inactive) | > 100 µM (inactive) |
| CC(Cc1ccccc1)Nc1ncnc2c1ncn2C1OC(CO)CC1O (stereo unspecified) | > 100 µM (inactive) | > 100 µM (inactive) | > 100 µM (inactive) | – | > 100 µM (inactive) | > 100 µM (inactive) | > 100 µM (inactive) | > 100 µM (inactive) | > 100 µM (inactive) | > 100 µM (inactive) | 1.93 µM (inactive) | > 100 µM (inactive) | > 100 µM (inactive) | > 100 µM (inactive) | > 100 µM (inactive) | > 100 µM (inactive) | > 100 µM (inactive) | > 100 µM (inactive) | > 100 µM (inactive) | > 100 µM (inactive) |
| COc1cccc2c(Nc3ccc(S(=O)(=O)Nc4ncccn4)cc3)c3ccc([N+](=O)[O-])cc3nc12 | > 100 µM (inactive) | > 100 µM (inactive) | 4.8 µM (inactive) | 10.4 µM (inactive) | 12.5 µM (inactive) | 38.7 µM (inactive) | 66.1 µM (inactive) | > 100 µM (inactive) | 8.67 µM (inactive) | > 100 µM (inactive) | > 100 µM (inactive) | 54.5 µM (inactive) | > 100 µM (inactive) | – | > 100 µM (inactive) | 9.82 µM (inactive) | 23 µM (inactive) | 14.3 µM (inactive) | – | 92.7 µM (inactive) |
